From patent US20250027045A1, “ESTABLISHMENT OF ERYTHROID PRECURSOR CELL LINE CAPABLE OF CONDITIONAL MATURATION USING GENE OVEREXPRESSION” (IUCF-HYU (INDUSTRY-UNIVERSITY COOPERATION FOUNDATION …, priority 2021, published 2025)
Where two headings read alike, the source gives them in different places.

Tests used:
[1] = tested on: Cord blood-derived CD34+ cells; assay: Proliferation of typical CD34+ cell culture with or without TGF-β inhibitor and PPAR-α agonist (cumulative cell number); type: cell-based, human
Protocol: HSCs were cultured for one to three days in a medium containing StemSpan SFEM (Stemcell Technologies) with 6 IU/ml EPO (Calbiochem, San Diego, CA), 100 ng/ml SCF (R&D Systems, Minneapolis, MN), and 10 ng/ml IL-3 (R&D Systems). Then, 5×10^4 cells were transduced with the virus concentrated in the above culture medium and polybrenc (8 μg/ml, Sigma). The multiplicity of infection (MOI) of the virus during transduction was calculated to be 15 to 30. 24 hours after the transduction, the medium was replaced with a fresh virus-free medium, and from day 5 of culture, the StemSpan SFEM medium was supplemented with 3 IU/ml EPO, 50 ng/ml SCF, 10^−6 M dexamethasone, and 250 nM TGF-β inhibitor (LY2157299, PeproTech, Rocky Hill, NJ), 10 μM PPAR-α agonist (GW7647, Sigma), and 1 μg/ml doxycycline (Takara Bio Inc.) to induce selective expression of HPV16 E6/E7 in the transduced cells. The efficiency of transduction was confirmed on day 7 of culture through GFP fluorescence expression of GFP-transduced cells, and the cells were maintained at a concentration of 2 to 3×10^5 cells/ml while replacing the medium with a fresh medium every two to three days. In addition, to obtain the cell proliferation and survival rate, the cells were stained with trypan blue (Gibco) and counted. […]

[2] = tested on: Cord blood-derived CD34+ cells; assay: Flow cytometry of CD71 marker: proportion of immature erythroblasts; type: cell-based, human; details: day 17, flow cytometry
Protocol: The following antibodies were used: glycophorin A (GPA; CD235a)-FITC (Life Technologies Inc., Gaithersburg, MD); and CD71-PE (BioLegend Inc., San Diego, CA). The cells were washed with 0.1% BSA, then antibodies were added and stained for 15 minutes at 4° C., while blocking light. In addition, a fluorescence microscope (Nikon Eclipse Ti; Nikon Corporation) was used to confirm the GFP fluorescence expressed in the cells cultured in the plate.
There is an TGF-β inhibitor (LY2157299) which is known to be effective in the maintenance and proliferation of immature erythroblasts, and a PPAR-α agonist (GW7647) that may have a synergistic effect on the proliferation of immature erythroblasts with glucocorticoid was explored, and an experiment was performed on the effects of the two substances. First, the two substances were added to a typical CD34+ cell culture under different conditions and cultured. In terms of cell proliferation, the cells proliferated the most by 1,500-fold by day 15 of culture when the culture was performed by adding the two substances together, and the cells proliferated by 1,000-fold by day 13 of culture in the experimental group where only the TGF-β inhibitor was added. […]

Text for E6/E7-transduced cells: Some of the cells in culture were spread on a slide using a cell centrifuge (Cellspin; Hanil Science Industrial Co. Ltd., Incheon, Korea) and stained with a Wright-Giemsa stain (Sigma), and the state, shape, and maturity of the cells were confirmed in a blind manner. Cell photos were taken using an optical microscope (Nikon Eclipse TE2000-U; Nikon Corporation).
In addition, the immature erythroblast marker CD71 was attached to the proliferating cells, and the proportion of immature erythroblasts was confirmed through flow cytometry.

Structure (SMILES) | immature erythroblasts, % of all cells (E6/E7-transduced cells; day 28 of culture) [%] | immature erythroblasts, % of all cells (E6/E7-transduced cells; day 33 of culture) [%] | cell proliferation ([1]; by day 13 of culture) | proliferation rate ([1]; day not given) [fold] | proportion of immature erythroblasts (CD71) [2] [%]
Cc1cccc(-c2nn3c(c2-c2ccnc4ccc(C(N)=O)cc24)CCC3)n1 [TGF-β inhibitor, LY2157299] | 26.7 | 15.2 | 1,000 fold |  | 
CC(C)(Sc1ccc(CCN(CCCCC2CCCCC2)C(=O)NC2CCCCC2)cc1)C(=O)O [PPAR-α agonist, GW7647] |  |  |  | 500 | 53
